For this test, the system named is IL-10 secretion by OCI-Ly3 ABC-DLBCL cells. Kind of test: IL-10 secretion assay using OCI-Ly3 cells (MSD). The class given is cell-based. To be noted: Homo sapiens, 24 h, read-out: IC50, IL10 secretion. As for the experimental part: FIG. 21A. Chemical structure of JNJ-67690246. FIG. 21B. IC50 values for JNJ-67690246 in biochemical enzymatic and cellular cytokine secretion assays. MALT1 proteolytic IC50: purified recombinant MALT1 was preincubated for 50 min at RT with JNJ-67690246, substrate Ac-LRSR-AMC was then incubated for 4 h. MALT1 proteolytic activity was determined by measuring the increase of AMC fluorescence. […] FIG. 21C. Table for IC50 values of three different MALT1 inhibitors measured in HBL1 and OCI-Ly10 cells expressing WT and mutant BCL10. D-F. MALT1 activity measured in OCI-Ly10 GloSensor reporter cells treated with MALT1 inhibitors. OCI-Ly10 MALT1 GloSensor cells were stably expressing wildtype and mutant BCL10, then treated with MALT1 inhibitors of different range (10-0.3 uM). FIG. 21G-I. NF-κB activity measured in NF-κB-RE-luciferase reporter cell lines treated with MALT1 inhibitors. HBL1 NF-κB reporter cells lines were stably expressing wildtype and mutant BCL10, and then treated with MALT1 inhibitors of different range (10-0.3 uM). NF-xB activity was performed 24 h after treatment. Error bars indicate SEM with 4 biological replicates. p<0.05; “p<0.01; “<0.001; ****p<0.0001; ns, not significant.
Secretion of the IL-6 and IL-10 cytokines by OCI-Ly3 ABC-DLBCL cells was measured using a Mesoscale assay (MSD). MALT1 inhibition results in a decrease of IL-6/10 secretion. […] Plates were read on a SECTOR imager.

Consider `Cc1nc(-n2nccn2)c(Cl)cc1NC(=O)c1cnn(-c2cccc3c(=O)[nH]ccc23)c1C(F)(F)F` [JNJ-67690246], for which the half-inhibitory concentration (IC50) worked out at 0.06 µM.

The IC50 is the concentration that gives 50% inhibition.
